{"source": "patent US20050107316A1", "about": "“Agent for inhibiting development or progress of proliferative diseases and especially cancer diseases and pharmaceutical composition containing said agent” (priority 2002, published 2005)", "key": {"HeLa S3 cells [1]": {"system": "HeLa S3 cells", "experiment": "Cell cycle analysis and count of mitotic cells after peptide treatment, HeLa S3", "type": "cell-based, human", "description": "Cell cycle analysis was performed using a Cycle TEST™ PLUS DNA reagent kit (Becton Dickinson) according to the manufacturer's instructions. Briefly, cells were washed with PBS, treated with RNase A and stained with propidium iodide (PI). The analysis was performed using a Becton Dickinson FACScan flow cytometer. Using the MODFIT LT 2.0 software (Verity Software House, Topsham, Me.) for each individual sample 30,000 cells were analyzed.\n(§1) For staining cells were grown in slide flasks and treated with peptides for 24 h. Then, cells were fixed in 4% paraformaldehyde for 30 min, permeabilized in 0.2% Triton X-100 for 20 min and stained with α-tubulin (Serotec/Biozol, Eching) 1:100, polyclonal rabbit PLK1 1:100, or monoclonal α-tubulin (Sigma) 1:100. Stained cells were analyzed with a confocal laser scan microscope (CLSM) or a fluorescence microscope."}, "HeLa S3 cells [2]": {"system": "HeLa S3 cells", "experiment": "DNA and tubulin staining of polo-box-treated cells", "type": "cell-based, human", "description": "as §1"}, "PLK1": {"system": "PLK1", "experiment": "In vitro kinase assay with PLK1 purified from Sf 9 cells", "type": "biochemical, human", "description": "PLK1 purified from Sf 9 cells was incubated with 0.5-1 μg of PLK1-specific substrates and 2 μCi of […] for 20 min at 37° C. in kinase buffer (20 mM HEPES pH 7.4, 150 mM KCl, 10 mM MgCl2, 1 mM EGTA, 0.5 mM DTT, 5 mM NaF, 0.1 mM Na3VO4 and 100 μM ATP)."}, "HeLa S3 cells [3]": {"system": "HeLa S3 cells", "experiment": "Growth inhibition assay with peptides, HeLa S3", "type": "cell-based, human", "details": "HeLa S3, 5 μM", "description": "(§2) Cancer cell lines HeLa S3 (cervix), MCF-7 (breast) and Saos-2 (osteosarcoma) were grown at 37° C. in 5% CO2 in Ham's F 12, RPMI 1640 and McCoy's 5a medium, respectively containing 10% FBS, 2 mM L-glutamine. To assay for growth inhibition, exponentially growing cells (0.3-2.5×10^4) were seeded into 24-well plates. On the following day cells were incubated with peptides at varying concentrations without serum for 3 h followed by addition of complete medium. On day 3, 6 and 8 cells were treated again and harvested on day 3, 6, 8 and 10 to determine cell numbers using a Hemacytometer. Cell viability was assessed by trypan blue staining. Each experiment was repeated at least three times."}, "MCF-7 and HeLa S3 cells": {"system": "MCF-7 and HeLa S3 cells", "experiment": "Annexin V apoptosis assay and DNA staining after peptide treatment", "type": "cell-based, human", "description": "Cells were seeded into 6-well plates, allowed to attach overnight, and then treated with different peptides at a concentration of 10 μM. Cells were trypsinized after 16 h and incubated with Annexin V according to the manufacturer's recommendations (Mo Bi Tech)."}, "Saos-2 cells": {"system": "Saos-2 cells", "experiment": "Growth inhibition assay with peptides, Saos-2", "type": "cell-based, human", "details": "Saos-2, 5 μM", "description": "as §2"}, "[4]": {"system": "primary epithelial cells (HMEC)", "experiment": "Growth inhibition with peptides, primary epithelial cells", "type": "cell-based, human"}, "MCF-7 cells": {"system": "MCF-7 cells", "type": "cell-based, human", "description": "as §2"}}, "data": [{"substance": "H-WVSKWVDYSDKYGLGYQLCDRQIKIWFQNRRMKWKK-OH [Peptide P1]", "values": [{"measurement": "Increase of mitotic cells compared to control cells", "setting": "HeLa S3 cells [1]; HeLa S3, 24 h, 5 μM", "result": "3-4 fold"}, {"measurement": "Percentage of mitotic cells", "setting": "HeLa S3 cells [1]; HeLa S3, 24 h, 5 μM", "result": 14.7, "unit": "%"}, {"measurement": "Increase of cells in G2/M compared to control cells", "setting": "HeLa S3 cells [1]; HeLa S3, day 6, 5 μM", "result": "25-35%"}, {"measurement": "Chromosomes", "setting": "HeLa S3 cells [2]", "result": "misaligned, not properly segregated and partially condensed"}, {"measurement": "Inhibitory effect on phosphorylation", "setting": "PLK1; 6.25 to 25.0 μM, wild-type compared with mutated form P2", "result": "at least two fold more inhibition"}, {"measurement": "Phosphorylation of substrates by PLK1", "setting": "PLK1; 37° C., 20 min", "result": "decreased the phosphorylation of substrates clearly"}, {"measurement": "Inhibitory effect on phosphorylation", "setting": "PLK1; below 1.56 μM", "result": "still exhibited some effect"}, {"measurement": "Inhibitory effect on cell proliferation", "setting": "HeLa S3 cells [3]", "result": "little inhibition"}, {"measurement": "Apoptotic cells", "setting": "MCF-7 and HeLa S3 cells; 10 μM, 16 h annexin V and PI, DNA staining after 1 day", "result": "elevated percentage of apoptotic cells"}, {"measurement": "Apoptotic peak", "setting": "MCF-7 and HeLa S3 cells; time of treatment", "result": 24, "unit": "h"}, {"measurement": "Start of the inhibitory effect", "setting": "MCF-7 and HeLa S3 cells; time of treatment", "result": 10, "unit": "h"}, {"measurement": "Inhibitory effect on cell proliferation", "setting": "Saos-2 cells", "result": "intermediate effect"}, {"measurement": "Inhibition of proliferation", "setting": "[4]", "result": "to a much lower extent than MCF-7 cells"}, {"measurement": "Concentration with general toxic effect", "setting": "MCF-7 cells", "result": "above 20 μM"}, {"measurement": "Concentrations that started to inhibit proliferation", "setting": "MCF-7 cells; MCF-7", "result": "above 1 μM"}, {"measurement": "Range of dose-dependent inhibition of proliferation", "setting": "MCF-7 cells; MCF-7", "result": "1 to 10", "unit": "µM"}, {"measurement": "Inhibitory effect on cell proliferation", "setting": "MCF-7 cells; MCF-7, 5 μM", "result": "most prominent in MCF-7 cells"}, {"measurement": "Growth behavior", "setting": "MCF-7 cells; MCF-7, 0.01 to 0.5 μM", "result": "did not affect the growth behavior"}]}]}
